From publication PMC10418725, “Trypsin from Pyloric Caeca of Asian Seabass: Purification, Characterization, and Its Use in the Hydrolysis of Acid-Soluble Collagen” (Foods, 2023)

System: purified trypsin (PT) from the pyloric caeca of Asian seabass
Assay: 4-nitroaniline release, A410; Lineweaver-Burk
Format: biochemical, Lates calcarifer
Settings: 30 °C, optimal pH (8.5) per Table 3 footnote; free enzyme; b65 text prints 0.0078 (no unit)

## NC(N)=NCCCC(NC(=O)c1ccccc1)C(=O)Nc1ccc([N+](=O)[O-])cc1 (stereo not shown) [BAPNA]
  Km: 78 µM
